Results taken from the supplement of paper PMC10307832.

Columns and labels:
Experiment in all cases: relative viability (nuclei count vs DMSO), 5 days (fraction); higher = more cells survive
NCI-H1993 = settings: first compound 0.5 µM
Procedure, shortened: (§1)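 For relative viability, nuclei counts in treated wells were divided by those in vehicle wells. Lung cancer cell lines had been pin-tool dosed in 1536-well plates the day after seeding and cultured for 5 days, then fixed and stained in one step (final 0.05% Triton X-100, 1% formaldehyde, 1 ug/ml Hoechst) and imaged at 4×. Doses were one drug alone or a fixed anchor-drug dose plus five library-drug doses (not always all listed) in √10 steps, and values are duplicate-plate medians.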

NCI-H2087 = test system: NCI-H2087
Procedure, shortened: as §1

NCI-H596 = test system: NCI-H596
Procedure, shortened: as §1

HCC-44 = test system: HCC-44
Procedure, shortened: as §1

NCI-H1666 = test system: NCI-H1666
Procedure, shortened: as §1

201T = test system: 201T
Procedure, shortened: as §1

HARA = test system: HARA
Procedure, shortened: as §1

NCI-H2009 = test system: NCI-H2009
Procedure, shortened: as §1

BEN = test system: BEN
Procedure, shortened: as §1

LOU-NH91 = test system: LOU-NH91
Procedure, shortened: as §1

NCI-H647 = test system: NCI-H647
Procedure, shortened: as §1

EMC-BAC-2 = test system: EMC-BAC-2
Procedure, shortened: as §1

SMILES: CC1(C)CCC(c2ccc(Cl)cc2)=C(CN2CCN(c3ccc(C(=O)NS(=O)(=O)c4ccc(N[C@H](CCN5CCOCC5)CSc5ccccc5)c(S(=O)(=O)C(F)(F)F)c4)cc3)CC2)C1 [Navitoclax] + Nc1nc2[nH]cc(CCc3ccc(C(=O)N[C@@H](CCC(=O)O)C(=O)O)cc3)c2c(=O)[nH]1 [Pemetrexed] (partner 0.2 µM)
- relative viability (NCI-H1993): 0.677
- relative viability (NCI-H2087; first compound 0.005 µM): 0.689
- relative viability (NCI-H2087; first compound 0.01581 µM): 0.697
- relative viability (NCI-H2087; first compound 0.1581 µM): 0.686
- relative viability (NCI-H2087; first compound 0.5 µM): 0.675
- relative viability (NCI-H596; first compound 0.005 µM): 0.418
- relative viability (NCI-H596; first compound 0.01581 µM): 0.459
- relative viability (NCI-H596; first compound 0.05 µM): 0.5
- relative viability (NCI-H596; first compound 0.1581 µM): 0.439
- relative viability (NCI-H596; first compound 0.5 µM): 0.39
- relative viability (HCC-44; first compound 0.005 µM): 0.633
- relative viability (HCC-44; first compound 0.01581 µM): 0.65
- relative viability (HCC-44; first compound 0.05 µM): 0.625
- relative viability (HCC-44; first compound 0.1581 µM): 0.603
- relative viability (HCC-44; first compound 0.5 µM): 0.558
- relative viability (NCI-H1666; first compound 0.005 µM): 0.867
- relative viability (NCI-H1666; first compound 0.01581 µM): 0.964
- relative viability (NCI-H1666; first compound 0.05 µM): 0.836
- relative viability (NCI-H1666; first compound 0.1581 µM): 0.831
- relative viability (NCI-H1666; first compound 0.5 µM): 0.966
- relative viability (201T; first compound 0.005 µM): 0.299
- relative viability (201T; first compound 0.01581 µM): 0.31
- relative viability (201T; first compound 0.05 µM): 0.34
- relative viability (201T; first compound 0.1581 µM): 0.321
- relative viability (201T; first compound 0.5 µM): 0.357
- relative viability (HARA; first compound 0.005 µM): 0.189
- relative viability (HARA; first compound 0.01581 µM): 0.232
- relative viability (HARA; first compound 0.05 µM): 0.255
- relative viability (HARA; first compound 0.1581 µM): 0.236
- relative viability (HARA; first compound 0.5 µM): 0.218
- relative viability (NCI-H2009; first compound 0.005 µM): 0.997
- relative viability (NCI-H2009; first compound 0.01581 µM): 1.03
- relative viability (NCI-H2009; first compound 0.05 µM): 1.03
- relative viability (NCI-H2009; first compound 0.1581 µM): 1.04
- relative viability (NCI-H2009; first compound 0.5 µM): 1.01
- relative viability (BEN; first compound 0.005 µM): 0.781
- relative viability (BEN; first compound 0.01581 µM): 0.841
- relative viability (BEN; first compound 0.05 µM): 0.74
- relative viability (BEN; first compound 0.1581 µM): 0.803
- relative viability (BEN; first compound 0.5 µM): 0.418
- relative viability (LOU-NH91; first compound 0.005 µM): 0.308
- relative viability (LOU-NH91; first compound 0.01581 µM): 0.304
- relative viability (LOU-NH91; first compound 0.05 µM): 0.26
- relative viability (LOU-NH91; first compound 0.1581 µM): 0.285
- relative viability (LOU-NH91; first compound 0.5 µM): 0.219
- relative viability (NCI-H647; first compound 0.005 µM): 0.166
- relative viability (NCI-H647; first compound 0.01581 µM): 0.175
- relative viability (NCI-H647; first compound 0.05 µM): 0.163
- relative viability (NCI-H647; first compound 0.1581 µM): 0.14
- relative viability (NCI-H647; first compound 0.5 µM): 0.128
- relative viability (EMC-BAC-2; first compound 0.005 µM): 0.433
- relative viability (EMC-BAC-2; first compound 0.01581 µM): 0.437
- relative viability (EMC-BAC-2; first compound 0.05 µM): 0.408
- relative viability (EMC-BAC-2; first compound 0.1581 µM): 0.423
- relative viability (EMC-BAC-2; first compound 0.5 µM): 0.419
